Assay results: paper PMC7857480 (The Journal of Biological Chemistry, 2020)

Target: FigA (Francisella tularensis, UniProt Q15EH0)
Conditions: FigA alone; citrate, 2.25 mM ATP, 15 mM MgCl2, 50 mM HEPES pH 7.4, RT 2 h

Chain of FigA (Q15EH0 1-639): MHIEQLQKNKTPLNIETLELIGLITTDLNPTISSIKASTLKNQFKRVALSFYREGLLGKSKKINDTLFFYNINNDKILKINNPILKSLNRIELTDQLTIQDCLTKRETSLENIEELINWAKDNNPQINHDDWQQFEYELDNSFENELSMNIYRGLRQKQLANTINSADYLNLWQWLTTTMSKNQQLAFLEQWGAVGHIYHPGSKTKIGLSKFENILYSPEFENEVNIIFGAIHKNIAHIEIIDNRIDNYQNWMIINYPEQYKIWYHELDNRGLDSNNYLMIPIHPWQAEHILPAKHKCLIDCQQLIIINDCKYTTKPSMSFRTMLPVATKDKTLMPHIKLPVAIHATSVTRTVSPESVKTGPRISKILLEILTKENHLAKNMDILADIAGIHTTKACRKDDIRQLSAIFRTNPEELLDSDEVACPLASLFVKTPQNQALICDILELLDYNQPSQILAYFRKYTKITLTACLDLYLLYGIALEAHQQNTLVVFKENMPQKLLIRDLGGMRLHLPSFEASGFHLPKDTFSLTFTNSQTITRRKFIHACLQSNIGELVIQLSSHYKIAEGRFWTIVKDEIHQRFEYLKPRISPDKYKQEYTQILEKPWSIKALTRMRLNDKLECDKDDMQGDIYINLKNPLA

## NCCC[C@H](N)C(=O)O [L-ornithine]
  in vitro assay, LC-MS of N-citrylornithine (m/z 307.1): FigA alone assayed with citrate and L-ornithine assay were analyzed by LC-MS
